Like-named read-outs stand apart in the source and are kept apart here.
Columns and labels:
RVFV = experiment: microbe, parasite or virus in culture; assay type: cell-based; settings: Rift Valley fever virus, Vero 76
SARS = experiment: organism not typed; assay type: cell-based, SARS CoV; settings: Vero 76
[1] = Cytotoxicity in lymphocyte assays, BCBL-1 cells; assay type: cell-based; settings: human, parallel to HHV-8 assay
Procedure: (§1) Every antiviral assay included a parallel cytotoxicity assay with the same cells used for each virus, the same cell number, the same drug concentrations, and the same incubation times to provide the same drug exposure. To ensure that the cytotoxicity of all compounds could be compared directly, a standard neutral red uptake cytotoxicity assay for all compounds in confluent HFF cells with a 7 d incubation period was performed.
(§2) Cytotoxicity in Lymphocyte Assays:
(§3) Cell viability in all assays with lymphocytes was assessed with a luminescent Cell Viability Assay. Briefly, assay plates were incubated at ambient temperature for 30 min then luminescent reagent was added to each well and the plates were mixed to lyse the cells. Plates were then incubated for at ambient temperature and the luminescence was quantified on a luminometer. Standard methods were used to calculate drug concentrations that inhibited the proliferation of cells by 50% (CC50).
(§4) Cell viability in all assays with lymphocytes was assessed with the CellTiter-Glo Luminescent Cell Viability Assay (Promega). […] Plates were then incubated for an additional 10 min at ambient temperature and the luminescence was quantified on a luminometer. […]

[2] = Cytotoxicity in lymphocyte assays, Akata cells; assay type: cell-based; settings: human, parallel to EBV assay
Procedure: as §1, §2, §3, §4

VACV = experiment: microbe, parasite or virus in culture; assay type: cell-based; settings: Orthopoxvirus vaccinia, HFF
[3] = Parallel cytotoxicity assay in A549 cells; assay type: cell-based; settings: human, parallel to AdV assay
Procedure: as §1
The primary screen was a cytopathic effect (CPE) reduction assay. Briefly, cultures of cells were infected with virus in the presence of test compounds and incubated for 4-7 days (depending on the specific virus/cells). […] Therefore, antiviral effect, or cytoprotection, was observed when compounds prevent virus replication. […] Cytoprotection and compound cytotoxicity were assessed by MTS dye reduction. The percent reduction in viral CPE (antiviral activity) and percent cell viability (cytotoxicity) were determined and reported.
The primary screen was a cytopathic effect (CPE) reduction assay. […] Cytoprotection and compound cytotoxicity were assessed by MTS (CellTiter®96 Reagent, Promega, Madison Wis.) dye reduction. The percent reduction in viral CPE (antiviral activity) and percent cell viability (cytotoxicity) were determined and reported.

MEV = experiment: microbe, parasite or virus in culture; assay type: cell-based; settings: Measles morbillivirus, Vero 76, Vero76 cells
[4] = CytoTox-1 cytotoxicity assay in Huh 7 cells; assay type: cell-based; settings: human, parallel to HCV assay
Procedure: Luciferase reporter (Replicon)/CytoTox-1 (Toxicity). Compounds were screened for anti-HCV activity using a luciferase (Luc) reporter gene endpoint in the HCV primary assay. The Luc reporter was used as an indirect measure of HCV replication as its activity is directly proportional to HCV RNA levels. Assessment of cytotoxicity is conducted in parallel. Drug stocks were prepared in DMSO unless otherwise specified and were diluted with tissue culture medium to the desired high-test concentration. For each assay, the compounds were then further diluted in tissue culture medium as required. After incubation, the cells were processed to derive, where applicable, EC50 and EC90 (compound concentration reducing replicon replication by 50% and 90% respectively). […] Anti-HCV activity was assessed with the replicon (genotype 1b or 2a) or HCVcc virus-derived Luc activity as readout; whereas the cytotoxic concentrations of drug reducing cell numbers was assessed by the CytoTox-1 cell proliferation assay according to manufacturer's protocol. […]
Luciferase reporter (Replicon)/CytoTox-1 (Toxicity). […] Anti-HCV activity was assessed with the replicon (genotype 1b or 2a) or HCVcc virus-derived Luc activity as readout; whereas the cytotoxic concentrations of drug reducing cell numbers was assessed by the CytoTox-1 cell proliferation assay (Promega, Madison, Wis.) according to manufacturer's protocol. […]

Cc1nc(N)c2c(C(N)=O)cn([C@@H]3O[C@H](CO)[C@@H](O)[C@H]3O)c2n1 [Compound 1, 4-amino-7-((2R,3R,4S,5R)-3,4-dihydroxy-5-(hydroxymethyl)tetrahydrofuran-2-yl)-2-methyl-7H-pyrrolo[2,3-d]pyrimidine-5-carboxamide]
CC50 (Vero76; African green monkey): > 100 µM | CC50 (Vero76; Vero76 cells, parallel to DENV-2 assay): > 100 µM | CC50 (Vero76; Vero76 cells, parallel to ENTV-71 assay): > 100 µM | CC50 (Vero76; Vero76 cells, parallel to POV-3 assay): > 100 µM | CC50 (Vero76; Vero76 cells, parallel to WNV assay): > 100 µM | EC50 (RVFV): > 100 µM | EC50 (SARS): 37 µM | CC50 [1]: 46.8 µM | CC50 [2]: > 60 µM | EC50 (VACV): 56.2 µM | CC50 [3]: > 100 µM | EC50 (MEV): > 100 µM | CC50 [4]: > 20 µM

From patent publication US9708359B2, “Pyrrolopyrimidine nucleosides and analogs thereof” (Chimerix, Inc., priority 2015, dated 2017)
